The results in this text go back to patent US4075340A, “Thieno [2,3-C] pyridine derivatives and therapeutic composition containing same” (Parcor, priority 1975, dated 1978).

Data set [1] is described as follows: acute toxicity, LD50 /24 hrs/kg body weight, intravenous route, method according to Miller and Tainter. The following applies: in vivo.
Data set [2] relates to blood platelet aggregation. Kind of data set: Inhibiting activity on blood platelet aggregation (adenosine diphosphate induced, turbidimetric assay). The class given is in vivo. The following applies: rat plasma, animals administered 100 mg/kg, read-out: percent inhibition on blood platelet aggregation. How it is done: Rat plasma, prepared to contain 600,000+20,000 blood platelets per mm3 is normally cloudy. Addition of adenosine diphosphate induces blood platelet aggregation and, thus an increase of the light transmission. When the same test is effected with a plasma prepared from the blood of an animal which has been administered 100 mg/kg of a derivative having an inhibiting effect on blood platelet aggregation, there is no aggregation of the blood platelets and the serum remains cloudy. The turbidimetric assay effected with a spectrophotometer provides a measure of the inhibiting activities of the test derivatives on blood platelet aggregation.

Structures can show the parent of a compound that is named as a salt.

Broadly, the LD50 is the dose at which mortality reaches 50%. Higher therefore signals lower toxicity. Usually inhibition stands for the relative decrease from the control value, in per cent. For the molecule `OC(CN1CCc2ccsc2C1)c1ccc(Cl)cc1` (stereo not shown) [Derivative No. 27, 6-(2-hydroxy-2-p.chlorophenyl-ethyl)-4,5,6,7-tetrahydro-thieno[2,3-c]pyridine], in data set [1], the median lethal dose (LD50) at 24 h turned out to be 45 mg/kg. Moreover, the inhibition at 100 mg/kg in data set [2] was determined as 86%. As for `O=[N+]([O-])c1ccc(CN2CCc3ccsc3C2)cc1` [Derivative No. 12, 6-p-nitrobenzyl-4,5,6,7-tetrahydro-thieno[2,3-c]pyridine], the inhibition at 100 mg/kg in data set [2] stood at 75%. In data set [1], `Clc1ccc(CN2CCc3ccsc3C2)cc1` [Derivative No. 21, 6-p.chlorobenzyl-4,5,6,7-tetrahydro-thieno[2,3-c]pyridine, hydrochloride] gave an LD50 at 24 h of 55 mg/kg. Also, the inhibition at 100 mg/kg in data set [2] was found to be 91%.

Turning to `Cc1ccc(CN2CCc3ccsc3C2)cc1` [Derivative No. 24, 6-p.methylbenzyl-4,5,6,7-tetrahydro-thieno[2,3-c]pyridine, hydrochloride], the median lethal dose (LD50) at 24 h in data set [1] turned out to be 45 mg/kg. In addition, in data set [2], the inhibition at 100 mg/kg stood at 78%.

In turn, `CC(O)CN1CCc2ccsc2C1.Cl` (stereo not shown) [Derivative No. 9, 6-(2-hydroxy-propyl)-4,5,6,7-tetrahydro-thieno[2,3-c]pyridine, hydrochloride] registered an LD50 at 24 h in data set [1] of 120 mg/kg. In addition, in data set [2], the inhibition at 100 mg/kg was 89%. For `CC1c2sccc2CCN1CC(O)c1ccccc1` (stereo not shown) [Derivative No. 7, 6-(2-hydroxy-2-phenyl-ethyl)-7-methyl-4,5,6,7-tetrahydro-thieno[2,3-c]pyridine], the inhibition at 100 mg/kg in data set [2] was found to be 85%. Take `OC(CN1CCc2ccsc2C1)c1ccc(F)cc1` (stereo not shown) [Derivative No. 29, 6-(2-hydroxy-2-p.fluorophenyl-ethyl)-4,5,6,7-tetrahydro-thieno[2,3-c]pyridine]: the LD50 at 24 h in data set [1] was 60 mg/kg. The inhibition at 100 mg/kg in data set [2] came out at 89%.

As for `COc1cccc(C(O)CN2CCc3ccsc3C2C)c1` (stereo not shown) [Derivative No. 33, 6-(2-hydroxy-2-m.methoxyphenyl-ethyl)-7-methyl-4,5,6,7,-tetrahydro-thieno[2,3-c]pyridine], the inhibition at 100 mg/kg in data set [2] was found to be 74%.

`COc1ccc(CN2CCc3ccsc3C2)cc1` [Derivative No. 18, 6-p.methoxybenzyl-4,5,6,7-tetrahydro-thieno[2,3-c]pyridine, hydrochloride]: in data set [1], the LD50 at 24 h amounted to 60 mg/kg. In addition, the inhibition at 100 mg/kg in data set [2] came out at 78%.

On to `COc1cc(CN2CCc3ccsc3C2C)cc(OC)c1OC` (stereo not shown) [Derivative No. 3, 7-methyl-6-(3,4,5-trimethoxy-benzyl)-4,5,6,7-tetrahydro-thieno[2,3-c]pyridine], for which the inhibition at 100 mg/kg in data set [2] was found to be 91%.
